Converted amounts (≈) assume the structure as drawn. The source made the active and inactive calls. The rule behind the calls is not given here. Some results are limits rather than exact numbers.

This note sets out measurements from ChEMBL document CHEMBL6177993, “De Novo 3-(Phenylcarbamoyl) Benzoate Analogues: Efficacy against Multidrug-Resistant S. aureus and Elucidation of the Biodistribution Profile” (J Med Chem, 2025).

In assay [1] the test system is Staphylococcus aureus. Nature of the assay: Antibacterial activity against vacomycin-resistant Staphylococcus aureus VRS 4 assessed as reduction in bacterial growth measured after 18 to 24 hrs by broth microdilution method. The format is functional. Particulars: time 18-24 hrs.
Assay [2] concerns Cell membrane. The assay is described as follows: Induction of cytoplasmic membrane depolarization in Staphylococcus aureus ATCC 29213 assessed as fold increase in fluorescence intensity at 10 times MIC measured after 30 min by DiSC3-5 dye based fluorescence method. The format is subcellular.
Assay [3] concerns Staphylococcus aureus. The assay is described as follows: Inhibition of biofilm in Staphylococcus aureus ATCC 29213 at 1 ug/ml measured after 12 hrs by crystal violet staining based analysis. Format: functional, organism-based. Particulars: dose 1.0 µg/ml.
For assay [4], the system named is Staphylococcus aureus. The assay is described as follows: Antibacterial activity against methicillin-sensitive Staphylococcus aureus ATCC 29213 assessed as reduction in bacterial growth measured after 18 to 24 hrs by broth microdilution method. The format is functional. Particulars: time 18-24 hrs.
Assay [5] relates to Staphylococcus aureus. Nature of the assay: Antibacterial activity against methicillin-resistant Staphylococcus aureus NRS 100 assessed as reduction in bacterial growth measured after 18 to 24 hrs by broth microdilution method. Particulars: time 18-24 hrs. The format is functional.
Assay [6] deals with Staphylococcus aureus. The assay is described as follows: Antibacterial activity against Staphylococcus aureus ATCC 29213 infected in female BALB/c mouse skin infection model assessed as appearance of smooth dorsal skin at 10 times MIC pre-infected with bacteria followed by compound addition and measured after 24 hrs. The format is functional, organism-based.
Assay [7] relates to Acinetobacter baumannii. The assay is described as follows: Antibacterial activity against Acinetobacter baumannii BAA 1605 assessed as reduction in bacterial growth measured after 18 to 24 hrs by broth microdilution method. The format is functional. Particulars: time 18-24 hrs.
Assay [8] relates to Staphylococcus aureus. Nature of the assay: Antibacterial activity against methicillin-resistant Staphylococcus aureus NRS 129 assessed as reduction in bacterial growth measured after 18 to 24 hrs by broth microdilution method. The format is functional. Particulars: time 18-24 hrs.
The test system of assay [9] is Staphylococcus aureus. Nature of the assay: Inhibition of biofilm in Staphylococcus aureus ATCC 29213 at 1 times MIC measured after 12 hrs by crystal violet staining based analysis relative to control. The format is functional.
The test system of assay [10] is Staphylococcus aureus. Nature of the assay: Antibacterial activity against Staphylococcus aureus ATCC 29213 infected in female BALB/c mouse skin infection model assessed as log reduction in bacterial load at 10 times MIC pre-infected with bacteria followed by compound addition and measured after 24 hrs. Format: functional.
In assay [11] the test system is Staphylococcus aureus. Nature of the assay: Antibacterial activity against Staphylococcus aureus ATCC 29213 infected in female BALB/c mouse skin infection model assessed as reduction in number of bacterial cells in skin at 10 times MIC pre-infected with bacteria followed by compound addition and measured after 24 hrs. The format is functional, organism-based.

Turning to `O=C(O)c1cccc(C(=O)Nc2c(C(c3ccc(F)cc3)c3ccc(F)cc3)cc(Cl)cc2C(c2ccc(F)cc2)c2ccc(F)cc2)c1`, the MIC in [1] was 2 µg/mL (≈ 2.94 µM); in [4], 2 µg/mL (≈ 2.94 µM); in assay [5], 2 µg/mL (≈ 2.94 µM); in assay [7], over 64 µg/mL; in assay [8] it was 2 µg/mL (≈ 2.94 µM). The fold change (FC) in assay [2] worked out at 4. Moreover, the inhibition result in assay [3] is “Active”. Moreover, the outcome in assay [6] and in assay [11] was Active. In addition, the “inhibition (INH)” value in [9] is listed as 91%. The Activity in [10] is listed as 0.8 log10CFU/ml.
